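Step 1: Grow cells in 96-well plates. Step 2: Expose to compound for 48 hours at 5 concentrations. Step 3: Interpolate endpoints linearly; if unreached, use highest concentration. TGI: concentration producing complete growth inhibition.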
Experiments:
Experiment in all cases: DTP human tumour cell line panel, 48 h
OVCAR-8 ovarian = tested on: OVCAR-8 ovarian
SF-268 CNS = tested on: SF-268 CNS
NCI-H522 lung = tested on: NCI-H522 lung
A549 NSCLC = tested on: A549 NSCLC
M14 melanoma = tested on: M14 melanoma
HOP-92 NSCLC = tested on: HOP-92 NSCLC
OVCAR-3 ovarian = tested on: OVCAR-3 ovarian
CAKI-1 renal = tested on: CAKI-1 renal
DU-145 prostate = tested on: DU-145 prostate
U251 CNS = tested on: U251 CNS
DLD-1 colon = tested on: DLD-1 colon
DMS 114 small cell lung = tested on: DMS 114 small cell lung
KM20L2 colon = tested on: KM20L2 colon
SNB-78 CNS = tested on: SNB-78 CNS
DMS 273 small cell lung = tested on: DMS 273 small cell lung

SMILES: O=C1NN=C2C=C(c3ccc(Cl)cc3)CC(c3cccc(Cl)c3)C12 (stereo not drawn)
- TGI (OVCAR-8 ovarian): > 100 µM
- TGI (SF-268 CNS): > 100 µM
- TGI (NCI-H522 lung): 42.8 µM
- TGI (A549 NSCLC): 37.2 µM
- TGI (M14 melanoma): > 100 µM
- TGI (HOP-92 NSCLC): 50.9 µM
- TGI (OVCAR-3 ovarian): > 100 µM
- TGI (CAKI-1 renal): > 100 µM
- TGI (DU-145 prostate): > 100 µM
- TGI (U251 CNS): 39.9 µM

SMILES: COc1cc2c(cc1O)C1C(O)C(O)C=C3CCN(C2)C31 (stereo not drawn)
- TGI (DLD-1 colon): 14.2 µM
- TGI (DMS 114 small cell lung): 4.33 µM
- TGI (OVCAR-8 ovarian): 9.14 µM
- TGI (SF-268 CNS): 10.5 µM
- TGI (NCI-H522 lung): 4.29 µM
- TGI (A549 NSCLC): 10.5 µM
- TGI (KM20L2 colon): 18.3 µM
- TGI (M14 melanoma): 4.46 µM
- TGI (SNB-78 CNS): 9.27 µM
- TGI (DMS 273 small cell lung): 8.24 µM
- TGI (HOP-92 NSCLC): 5.92 µM
- TGI (OVCAR-3 ovarian): 8.12 µM
- TGI (CAKI-1 renal): 10.1 µM
- TGI (U251 CNS): 24.2 µM

SMILES: CCO/C=N/NC(=O)CSc1nc2ccc(I)cc2c(=O)n1Cc1ccccc1
- TGI (OVCAR-8 ovarian): > 100 µM
- TGI (SF-268 CNS): > 100 µM
- TGI (NCI-H522 lung): 13.3 µM
- TGI (A549 NSCLC): > 100 µM
- TGI (M14 melanoma): > 100 µM
- TGI (HOP-92 NSCLC): > 100 µM
- TGI (OVCAR-3 ovarian): > 100 µM
- TGI (CAKI-1 renal): > 100 µM
- TGI (DU-145 prostate): > 100 µM
- TGI (U251 CNS): > 100 µM

SMILES: COc1ccc(C(=O)/C=C/c2ccncc2)cc1OC
- TGI (OVCAR-8 ovarian): 28.6 µM
- TGI (SF-268 CNS): 30.5 µM
- TGI (NCI-H522 lung): 21.7 µM
- TGI (A549 NSCLC): 29.3 µM
- TGI (M14 melanoma): 27.8 µM
- TGI (HOP-92 NSCLC): 27.6 µM
- TGI (OVCAR-3 ovarian): 18.6 µM
- TGI (CAKI-1 renal): 29.2 µM
- TGI (DU-145 prostate): 31.6 µM
- TGI (U251 CNS): 23.2 µM

SMILES: CC1(C)OC(=C(C#N)C#N)C(C#N)=C1/C=C/c1ccncc1
- TGI (OVCAR-8 ovarian): 3.29 µM
- TGI (SF-268 CNS): 6.5 µM
- TGI (NCI-H522 lung): 4.12 µM
- TGI (A549 NSCLC): 34.1 µM
- TGI (M14 melanoma): 6.56 µM
- TGI (HOP-92 NSCLC): 5.17 µM
- TGI (OVCAR-3 ovarian): 3.59 µM
- TGI (CAKI-1 renal): 3.64 µM
- TGI (DU-145 prostate): 6.21 µM
- TGI (U251 CNS): 3.65 µM

SMILES: O=C(c1cc(Cl)cc(Cl)c1)N1CCN(C(=O)c2cc(Cl)cc(Cl)c2)C1=S
- TGI (OVCAR-8 ovarian): 44.5 µM
- TGI (SF-268 CNS): 37.6 µM
- TGI (NCI-H522 lung): 25.7 µM
- TGI (A549 NSCLC): 44.6 µM
- TGI (M14 melanoma): 27.3 µM
- TGI (HOP-92 NSCLC): 22.4 µM
- TGI (OVCAR-3 ovarian): 26.9 µM
- TGI (CAKI-1 renal): 25.2 µM
- TGI (DU-145 prostate): 21.5 µM
- TGI (U251 CNS): 26.4 µM

SMILES: C[C@H]1C2Cc3cc(N)ccc3[C@@]1(C)CCN2CCc1ccccc1
- TGI (OVCAR-8 ovarian): > 100 µM
- TGI (SF-268 CNS): > 100 µM
- TGI (NCI-H522 lung): 31.5 µM
- TGI (A549 NSCLC): > 100 µM
- TGI (M14 melanoma): 40 µM
- TGI (HOP-92 NSCLC): 90.9 µM
- TGI (OVCAR-3 ovarian): 92.6 µM
- TGI (CAKI-1 renal): > 100 µM
- TGI (DU-145 prostate): > 100 µM
- TGI (U251 CNS): > 100 µM

SMILES: COc1ccc(-c2nc(SCC(=O)N/N=C/c3ccc(O)c(OC)c3)[nH]c2-c2ccc(OC)cc2)cc1
- TGI (OVCAR-8 ovarian): > 100 µM
- TGI (SF-268 CNS): > 100 µM
- TGI (NCI-H522 lung): 53.8 µM
- TGI (A549 NSCLC): > 100 µM
- TGI (M14 melanoma): 56.6 µM
- TGI (HOP-92 NSCLC): 66.1 µM
- TGI (OVCAR-3 ovarian): 48 µM
- TGI (CAKI-1 renal): > 100 µM
- TGI (DU-145 prostate): > 100 µM
- TGI (U251 CNS): 40.8 µM

SMILES: CC(=O)Nc1ccc(-c2nc3cc(Cl)ccc3o2)cc1
- TGI (OVCAR-8 ovarian): > 50 µM
- TGI (SF-268 CNS): > 50 µM
- TGI (NCI-H522 lung): > 50 µM
- TGI (A549 NSCLC): > 50 µM
- TGI (M14 melanoma): > 50 µM
- TGI (HOP-92 NSCLC): > 50 µM
- TGI (OVCAR-3 ovarian): > 50 µM
- TGI (CAKI-1 renal): > 50 µM
- TGI (DU-145 prostate): > 50 µM
- TGI (U251 CNS): > 50 µM

SMILES: CCCCCC(/C=C/C1CCC(=O)C1CC#C[Si](C)(C)C)OCc1ccccc1 (stereo not drawn)
- TGI (OVCAR-8 ovarian): 31.1 µM
- TGI (SF-268 CNS): 29.4 µM
- TGI (NCI-H522 lung): 28.6 µM
- TGI (A549 NSCLC): 70.7 µM
- TGI (M14 melanoma): 77.8 µM
- TGI (HOP-92 NSCLC): 17.2 µM
- TGI (OVCAR-3 ovarian): 39.1 µM
- TGI (CAKI-1 renal): 36.8 µM
- TGI (DU-145 prostate): > 87.5 µM
- TGI (U251 CNS): 40.6 µM

SMILES: O=C(NS(=O)(=O)OCC(Cl)(Cl)Cl)SCCC(F)(F)C(F)(F)C(F)(F)C(F)(F)C(F)(F)C(F)(F)F
- TGI (OVCAR-8 ovarian): > 100 µM
- TGI (SF-268 CNS): > 100 µM
- TGI (NCI-H522 lung): 41.8 µM
- TGI (A549 NSCLC): 94.6 µM
- TGI (M14 melanoma): 48.6 µM
- TGI (HOP-92 NSCLC): 23.4 µM
- TGI (OVCAR-3 ovarian): 48.3 µM
- TGI (CAKI-1 renal): 92.7 µM
- TGI (DU-145 prostate): > 100 µM
- TGI (U251 CNS): 51.8 µM

SMILES: CC1(C)OC2C(O)CN3CCS[C@H]3C2O1 (stereo partly drawn)
- TGI (OVCAR-8 ovarian): > 100 µM
- TGI (SF-268 CNS): > 100 µM
- TGI (NCI-H522 lung): > 100 µM
- TGI (A549 NSCLC): > 100 µM
- TGI (M14 melanoma): > 100 µM
- TGI (HOP-92 NSCLC): > 100 µM
- TGI (OVCAR-3 ovarian): > 100 µM
- TGI (CAKI-1 renal): > 100 µM
- TGI (DU-145 prostate): > 100 µM
- TGI (U251 CNS): > 100 µM

SMILES: COc1ccc(C(O)c2nccn2C)c(OC)c1 (stereo not drawn)
- TGI (OVCAR-8 ovarian): > 100 µM
- TGI (SF-268 CNS): > 100 µM
- TGI (NCI-H522 lung): > 100 µM
- TGI (A549 NSCLC): > 100 µM
- TGI (M14 melanoma): > 100 µM
- TGI (HOP-92 NSCLC): > 100 µM
- TGI (OVCAR-3 ovarian): > 100 µM
- TGI (CAKI-1 renal): > 100 µM
- TGI (DU-145 prostate): > 100 µM
- TGI (U251 CNS): > 100 µM

SMILES: C[C@@H]1C[C@](O)([C@@H](C)Cl)C(=O)O[C@@H]2CCN3CC=C(COC(=O)[C@]1(C)O)[C@H]23
- TGI (OVCAR-8 ovarian): > 100 µM
- TGI (SF-268 CNS): > 100 µM
- TGI (NCI-H522 lung): > 100 µM
- TGI (A549 NSCLC): > 100 µM
- TGI (M14 melanoma): > 100 µM
- TGI (HOP-92 NSCLC): > 100 µM
- TGI (OVCAR-3 ovarian): > 100 µM
- TGI (CAKI-1 renal): > 100 µM
- TGI (DU-145 prostate): > 100 µM
- TGI (U251 CNS): > 100 µM

SMILES: CC(C)(C)c1cc(C(=O)/C=C/C=C/c2ccccc2)cc(C(C)(C)C)c1O
- TGI (OVCAR-8 ovarian): 58.5 µM
- TGI (SF-268 CNS): > 74 µM
- TGI (NCI-H522 lung): 52.5 µM
- TGI (A549 NSCLC): 47.3 µM
- TGI (M14 melanoma): 41.4 µM
- TGI (HOP-92 NSCLC): > 100 µM
- TGI (OVCAR-3 ovarian): > 94.1 µM
- TGI (CAKI-1 renal): > 100 µM
- TGI (DU-145 prostate): 98.1 µM
- TGI (U251 CNS): 33.5 µM

SMILES: O=C(/C=C/C=C/c1ccccc1)c1ccc2c(c1)CCCC2
- TGI (OVCAR-8 ovarian): > 100 µM
- TGI (SF-268 CNS): 42.6 µM
- TGI (NCI-H522 lung): 37.7 µM
- TGI (A549 NSCLC): > 100 µM
- TGI (M14 melanoma): > 100 µM
- TGI (HOP-92 NSCLC): 89.9 µM
- TGI (OVCAR-3 ovarian): > 100 µM
- TGI (CAKI-1 renal): > 100 µM
- TGI (DU-145 prostate): 92.3 µM
- TGI (U251 CNS): > 100 µM

SMILES: CC#C[P+](c1ccccc1)(c1ccccc1)c1ccccc1
- TGI (DLD-1 colon): 16.7 µM
- TGI (DMS 114 small cell lung): 9.95 µM
- TGI (OVCAR-8 ovarian): 12 µM
- TGI (SF-268 CNS): 8.44 µM
- TGI (NCI-H522 lung): 0.924 µM
- TGI (A549 NSCLC): > 100 µM
- TGI (KM20L2 colon): 21.3 µM
- TGI (M14 melanoma): 5.78 µM
- TGI (SNB-78 CNS): 22.9 µM
- TGI (DMS 273 small cell lung): 10.6 µM
- TGI (HOP-92 NSCLC): 5.42 µM
- TGI (OVCAR-3 ovarian): 14.3 µM
- TGI (CAKI-1 renal): 11.3 µM
- TGI (U251 CNS): 11.8 µM
